Patent US6822146B2, “Sulfonylurea-tolerant sunflower line M7” (priority 2000, dated 2004)

Key:
Assay type in all cases: in vivo, sunflower
BC4-M5M11 = experiment: Test B greenhouse phytotoxicity, BC4-M5M11
Experimental: (§1) A greenhouse experiment was conducted to evaluate the spectrum of tolerance of three homozygous resistant mutants to various herbicides inhibiting acetolactate synthase (ALS) as their mode of action. The inbred lines tested were the 5th generation self-pollinated maintainers, M5M7, M5M11 and M5M12, as well as the 4th generation male sterile back-crosses BC4-M5M7, BC4-M5M11 and BC4-M5M12. Treatments of formulated herbicides were applied post-emergence at the 4-leaf stage. Application rates of the test herbicides were chosen to coincide with the rates commonly used in the crops for which they are registered. The application rate of imazethapyr was chosen to match the rate recommended to control parasitic weeds in sunflowers by L. García-Torres et al., Weed Technology 1995, 9, 819-824. Wild type H89 inbred sunflower was not included in this test, because the many of the tested herbicides are known to be efficacious in controlling volunteer sunflower as a weed. Treatments were replicated twice. […] A rating of 0% phytotoxicity means no crop injury.

M5M11 = experiment: Test B greenhouse phytotoxicity, M5M11
Experimental: as §1

BC4-M5M7 = experiment: Test B greenhouse phytotoxicity, BC4-M5M7
Experimental: as §1

BC4-M5M12 = experiment: Test B greenhouse phytotoxicity, BC4-M5M12
Experimental: as §1

M5M7 = experiment: Test B greenhouse phytotoxicity, M5M7
Experimental: as §1

[1] = test system: homozygous progeny of the three mutant sources; conditions: Test B application rates, post-emergence
Experimental: as §1

M5M12 = experiment: Test B greenhouse phytotoxicity, M5M12
Experimental: as §1

BC4-M5M12 × PHA155 = experiment: Test C field phytotoxicity, BC4-M5M12 × PHA155
From the text: (§2) A rating of 0% phytotoxicity means no crop injury.

BC4-M5M7 × PHA155 = experiment: Test C field phytotoxicity, BC4-M5M7 × PHA155
From the text: as §2

[2] = postemergence 6.25 g a.i./ha, 7 DAT
[3] = postemergence 6.25 g a.i./ha, 15 DAT
[4] = postemergence 6.25 g a.i./ha, 30 DAT
[5] = postemergence 12.5 g a.i./ha, 7 DAT
[6] = postemergence 12.5 g a.i./ha, 15 DAT
[7] = postemergence 12.5 g a.i./ha, 30 DAT

SMILES | Maximum Phytotoxicity (BC4-M5M11; in vivo) [%] | Maximum Phytotoxicity (M5M11; in vivo) [%] | Maximum Phytotoxicity (BC4-M5M7; in vivo) [%] | Maximum Phytotoxicity (BC4-M5M12; in vivo) [%] | Maximum Phytotoxicity (M5M7; in vivo) [%] | tolerance of the mutants [1] | Maximum Phytotoxicity (M5M12; in vivo) [%] | further results
COC(=O)c1ccc(C(F)(F)F)nc1S(=O)(=O)NC(=O)Nc1nc(OC)cc(OC)n1 [Flupyrsulfuron-methyl-sodium] | 60 | 50 | 42.5 | 50 | 62.5 | somewhat sensitive | 57.5 | 
COc1cc(OC)nc(NC(=O)NS(=O)(=O)N(C)S(C)(=O)=O)n1 [Amidosulfuron, amidosulfuron] | 57.5 | 60 | 47.5 | 55 | 52.5 | somewhat sensitive | 45 | 
CCOC(=O)c1ccccc1S(=O)(=O)NC(=O)Nc1nc(Cl)cc(OC)n1 [Chlorimuron-ethyl, chlorimuron-ethyl] |  |  |  |  |  |  |  | Phytotoxicity Rating After Treatment (BC4-M5M12 × PHA155; [2]): 70%; Phytotoxicity Rating After Treatment (BC4-M5M12 × PHA155; [3]): 80%; Phytotoxicity Rating After Treatment (BC4-M5M12 × PHA155; [4]): 68%; Phytotoxicity Rating After Treatment (BC4-M5M12 × PHA155; [5]): 80%; Phytotoxicity Rating After Treatment (BC4-M5M12 × PHA155; [6]): 90%; Phytotoxicity Rating After Treatment (BC4-M5M12 × PHA155; [7]): 88%; Phytotoxicity Rating After Treatment (BC4-M5M7 × PHA155; [2]): 83%; Phytotoxicity Rating After Treatment (BC4-M5M7 × PHA155; [3]): 73%; Phytotoxicity Rating After Treatment (BC4-M5M7 × PHA155; [4]): 67%; Phytotoxicity Rating After Treatment (BC4-M5M7 × PHA155; [5]): 85%; Phytotoxicity Rating After Treatment (BC4-M5M7 × PHA155; [6]): 83%; Phytotoxicity Rating After Treatment (BC4-M5M7 × PHA155; [7]): 83%
CCS(=O)(=O)c1nc2ccccn2c1S(=O)(=O)NC(=O)Nc1nc(OC)cc(OC)n1 [Sulfosulfuron] | 57.5 | 60 | 47.5 | 50 | 50 | somewhat sensitive | 65 | 
COc1cc(OC)nc(Sc2cccc(Cl)c2C(=O)O)n1 [Pyrithiobac-sodium] | 42.5 | 50 | 35 | 40 | 37.5 | somewhat sensitive | 40 | 
COC(=O)c1c(Cl)nn(C)c1S(=O)(=O)NC(=O)Nc1nc(OC)cc(OC)n1 [Halosulfuron-methyl, halosulfuron-methyl] |  |  |  |  |  | somewhat sensitive |  | Maximum Phytotoxicity (BC4-M5M11; BC4-M5M11, 45 g a.i./ha post-emergence 4-leaf stage): 65%; Maximum Phytotoxicity (M5M11; M5M11, 45 g a.i./ha post-emergence 4-leaf stage): 60%; Maximum Phytotoxicity (BC4-M5M7; BC4-M5M7, 45 g a.i./ha post-emergence 4-leaf stage): 60%; Maximum Phytotoxicity (BC4-M5M12; BC4-M5M12, 45 g a.i./ha post-emergence 4-leaf stage): 65%; Maximum Phytotoxicity (M5M7; M5M7, 45 g a.i./ha post-emergence 4-leaf stage): 50%; Maximum Phytotoxicity (M5M12; M5M12, 45 g a.i./ha post-emergence 4-leaf stage): 60%
